# In ChEMBL document CHEMBL5291721, “A preclinical secondary pharmacology resource illuminates target-adverse drug reaction associations of marketed drugs” (Nat Commun, 2023):
# Tests used:
# [1] = target: Sodium-dependent serotonin transporter (Homo sapiens, UniProt P31645)
# Endothelin-1 receptor = target: T1, Endothelin-1 receptor (Homo sapiens, UniProt P25101)
# T1 sequence (P25101 whole entry): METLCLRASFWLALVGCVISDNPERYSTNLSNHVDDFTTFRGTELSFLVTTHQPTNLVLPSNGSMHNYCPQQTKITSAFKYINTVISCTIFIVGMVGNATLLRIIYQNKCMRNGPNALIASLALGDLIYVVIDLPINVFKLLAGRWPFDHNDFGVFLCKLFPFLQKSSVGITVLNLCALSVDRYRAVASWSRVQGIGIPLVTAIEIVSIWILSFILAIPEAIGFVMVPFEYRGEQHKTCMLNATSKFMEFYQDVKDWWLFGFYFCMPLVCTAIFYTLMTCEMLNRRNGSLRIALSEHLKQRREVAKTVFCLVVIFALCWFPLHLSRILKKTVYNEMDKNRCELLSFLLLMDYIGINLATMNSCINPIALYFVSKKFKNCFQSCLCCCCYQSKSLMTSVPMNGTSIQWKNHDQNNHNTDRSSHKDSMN
# [2] = target: Muscarinic acetylcholine receptor M3 (Homo sapiens, UniProt P20309)
# [3] = target: 5-hydroxytryptamine receptor 2A (Homo sapiens, UniProt P28223); type: functional, cell-based
# Cannabinoid receptor 1 = Cannabinoid receptor 1 (Homo sapiens, UniProt P21554); type: functional, cell-based
# D(3) dopamine receptor = D(3) dopamine receptor (Homo sapiens, UniProt P35462)
# [4] = target: T2, Alpha-1A adrenergic receptor (Homo sapiens, UniProt P35348); type: functional, cell-based
# T2 sequence (P35348 whole entry): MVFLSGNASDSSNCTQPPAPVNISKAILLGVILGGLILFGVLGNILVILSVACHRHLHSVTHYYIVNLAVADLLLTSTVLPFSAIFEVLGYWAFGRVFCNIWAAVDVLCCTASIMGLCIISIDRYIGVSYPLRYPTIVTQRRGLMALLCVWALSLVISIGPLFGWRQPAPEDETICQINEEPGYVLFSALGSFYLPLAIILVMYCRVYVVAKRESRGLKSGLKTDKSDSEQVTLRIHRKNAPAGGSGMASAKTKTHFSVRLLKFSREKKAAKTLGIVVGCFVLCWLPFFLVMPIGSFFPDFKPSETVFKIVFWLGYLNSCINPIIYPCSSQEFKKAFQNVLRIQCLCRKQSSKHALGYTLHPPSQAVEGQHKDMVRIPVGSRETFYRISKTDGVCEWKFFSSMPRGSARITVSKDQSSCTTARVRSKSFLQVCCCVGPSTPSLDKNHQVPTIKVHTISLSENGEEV
# [5] = target: Neuronal acetylcholine receptor subunit alpha-4 (Homo sapiens, UniProt P43681)
# [6] = target: T3, Gamma-aminobutyric acid receptor subunit alpha-1 (Rattus norvegicus, UniProt P62813); type: functional
# [7] = target: T4, Alpha-2C adrenergic receptor (Homo sapiens, UniProt P18825); type: functional
# T4 sequence (P18825 whole entry): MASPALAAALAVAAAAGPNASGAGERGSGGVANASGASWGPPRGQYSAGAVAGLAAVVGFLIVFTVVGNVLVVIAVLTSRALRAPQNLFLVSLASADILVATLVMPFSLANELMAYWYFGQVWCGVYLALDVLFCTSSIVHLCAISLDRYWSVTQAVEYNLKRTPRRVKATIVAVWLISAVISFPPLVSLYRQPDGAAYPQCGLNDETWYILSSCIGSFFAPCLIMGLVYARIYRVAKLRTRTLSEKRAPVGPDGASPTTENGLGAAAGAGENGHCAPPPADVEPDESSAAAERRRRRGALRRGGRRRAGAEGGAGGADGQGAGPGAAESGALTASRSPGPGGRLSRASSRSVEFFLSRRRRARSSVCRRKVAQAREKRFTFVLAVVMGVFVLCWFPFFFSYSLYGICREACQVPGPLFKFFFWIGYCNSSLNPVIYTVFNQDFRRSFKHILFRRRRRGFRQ
# [8] = target: T5, Gastrin/cholecystokinin type B receptor (Homo sapiens, UniProt P32239)
# T5 sequence (P32239 whole entry): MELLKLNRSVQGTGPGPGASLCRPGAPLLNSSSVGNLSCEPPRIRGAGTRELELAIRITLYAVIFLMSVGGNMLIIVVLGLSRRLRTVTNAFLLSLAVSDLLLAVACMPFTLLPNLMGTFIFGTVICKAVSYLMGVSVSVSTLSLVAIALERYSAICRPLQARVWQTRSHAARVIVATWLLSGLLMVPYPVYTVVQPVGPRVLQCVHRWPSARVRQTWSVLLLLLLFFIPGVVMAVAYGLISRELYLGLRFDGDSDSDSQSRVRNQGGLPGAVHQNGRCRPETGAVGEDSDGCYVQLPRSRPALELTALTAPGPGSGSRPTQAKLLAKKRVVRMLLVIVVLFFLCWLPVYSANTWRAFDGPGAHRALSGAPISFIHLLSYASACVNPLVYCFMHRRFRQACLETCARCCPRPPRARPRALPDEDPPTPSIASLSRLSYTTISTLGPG
# [9] = target: Kappa-type opioid receptor (Homo sapiens, UniProt P41145)
# Vasopressin V2 receptor = Vasopressin V2 receptor (Homo sapiens, UniProt P30518)
# [10] = target: 5-hydroxytryptamine receptor 2B (Homo sapiens, UniProt P41595); type: functional, cell-based
# [11] = target: T6, 5-hydroxytryptamine receptor 1A (Homo sapiens, UniProt P08908); type: functional, cell-based
# T6 sequence (P08908 whole entry): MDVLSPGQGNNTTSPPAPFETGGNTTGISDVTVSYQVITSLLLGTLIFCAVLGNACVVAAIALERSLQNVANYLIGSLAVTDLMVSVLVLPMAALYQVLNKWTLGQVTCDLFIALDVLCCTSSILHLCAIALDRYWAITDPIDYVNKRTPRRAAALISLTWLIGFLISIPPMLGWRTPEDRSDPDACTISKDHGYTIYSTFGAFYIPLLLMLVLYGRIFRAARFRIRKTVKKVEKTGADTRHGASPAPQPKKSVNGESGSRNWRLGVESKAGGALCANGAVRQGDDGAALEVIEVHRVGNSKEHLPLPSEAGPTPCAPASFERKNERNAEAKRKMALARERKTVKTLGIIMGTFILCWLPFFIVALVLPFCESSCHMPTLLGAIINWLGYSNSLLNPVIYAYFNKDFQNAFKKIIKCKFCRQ
# [12] = target: T3, Gamma-aminobutyric acid receptor subunit alpha-1
# Further: assay procedure not described here.
# Sequence of Cannabinoid receptor 1 (P21554 whole entry): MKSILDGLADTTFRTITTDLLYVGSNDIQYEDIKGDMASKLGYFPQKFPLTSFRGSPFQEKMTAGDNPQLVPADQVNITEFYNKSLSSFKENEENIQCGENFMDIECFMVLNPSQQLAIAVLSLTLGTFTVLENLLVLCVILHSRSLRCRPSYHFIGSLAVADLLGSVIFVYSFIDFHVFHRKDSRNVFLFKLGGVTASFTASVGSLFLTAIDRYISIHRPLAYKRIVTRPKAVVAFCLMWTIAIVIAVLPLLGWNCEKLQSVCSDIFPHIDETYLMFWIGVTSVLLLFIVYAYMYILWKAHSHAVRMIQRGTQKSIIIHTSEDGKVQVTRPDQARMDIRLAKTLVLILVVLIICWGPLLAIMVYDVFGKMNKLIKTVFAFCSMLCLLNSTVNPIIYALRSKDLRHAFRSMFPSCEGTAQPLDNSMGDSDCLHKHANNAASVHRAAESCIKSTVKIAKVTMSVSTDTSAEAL
# T3 sequence (P62813 whole entry): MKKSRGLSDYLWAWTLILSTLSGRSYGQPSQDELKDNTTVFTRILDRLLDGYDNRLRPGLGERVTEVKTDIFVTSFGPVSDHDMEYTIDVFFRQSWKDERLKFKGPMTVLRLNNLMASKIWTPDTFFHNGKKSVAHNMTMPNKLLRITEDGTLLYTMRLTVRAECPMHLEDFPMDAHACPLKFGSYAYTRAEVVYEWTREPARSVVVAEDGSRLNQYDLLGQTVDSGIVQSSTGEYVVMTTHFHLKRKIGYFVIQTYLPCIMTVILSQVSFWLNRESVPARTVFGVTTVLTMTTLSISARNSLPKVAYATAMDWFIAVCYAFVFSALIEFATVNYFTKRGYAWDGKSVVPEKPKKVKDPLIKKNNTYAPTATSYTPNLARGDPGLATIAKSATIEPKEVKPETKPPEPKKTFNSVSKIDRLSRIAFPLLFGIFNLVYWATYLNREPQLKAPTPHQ
# Sequence of Muscarinic acetylcholine receptor M3 (P20309 whole entry): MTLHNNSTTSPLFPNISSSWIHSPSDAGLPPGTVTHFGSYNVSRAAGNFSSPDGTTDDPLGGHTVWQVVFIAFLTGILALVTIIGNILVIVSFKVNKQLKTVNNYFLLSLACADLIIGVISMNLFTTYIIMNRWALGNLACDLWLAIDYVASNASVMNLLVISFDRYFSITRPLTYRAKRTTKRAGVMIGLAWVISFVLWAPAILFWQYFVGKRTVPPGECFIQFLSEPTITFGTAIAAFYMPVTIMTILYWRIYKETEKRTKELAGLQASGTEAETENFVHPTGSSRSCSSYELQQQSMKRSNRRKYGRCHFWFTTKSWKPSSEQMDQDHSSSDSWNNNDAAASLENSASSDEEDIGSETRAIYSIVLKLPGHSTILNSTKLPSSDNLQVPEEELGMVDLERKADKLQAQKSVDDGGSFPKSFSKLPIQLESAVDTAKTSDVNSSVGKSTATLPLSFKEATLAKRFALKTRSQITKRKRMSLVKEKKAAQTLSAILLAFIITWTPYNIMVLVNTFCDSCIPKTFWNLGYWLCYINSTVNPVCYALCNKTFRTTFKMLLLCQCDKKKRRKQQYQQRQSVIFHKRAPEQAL
# Sequence of Kappa-type opioid receptor (P41145 whole entry): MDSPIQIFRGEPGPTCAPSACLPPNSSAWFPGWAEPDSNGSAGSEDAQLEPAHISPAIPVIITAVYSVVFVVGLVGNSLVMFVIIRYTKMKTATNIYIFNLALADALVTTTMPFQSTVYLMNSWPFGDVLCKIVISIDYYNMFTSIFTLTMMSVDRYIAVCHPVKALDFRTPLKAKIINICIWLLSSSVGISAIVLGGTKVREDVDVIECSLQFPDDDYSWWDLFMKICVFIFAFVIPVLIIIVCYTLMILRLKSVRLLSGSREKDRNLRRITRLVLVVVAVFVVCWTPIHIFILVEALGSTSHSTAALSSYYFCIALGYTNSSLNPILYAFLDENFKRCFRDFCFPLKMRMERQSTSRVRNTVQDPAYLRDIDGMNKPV
# Sequence of 5-hydroxytryptamine receptor 2B (P41595 whole entry): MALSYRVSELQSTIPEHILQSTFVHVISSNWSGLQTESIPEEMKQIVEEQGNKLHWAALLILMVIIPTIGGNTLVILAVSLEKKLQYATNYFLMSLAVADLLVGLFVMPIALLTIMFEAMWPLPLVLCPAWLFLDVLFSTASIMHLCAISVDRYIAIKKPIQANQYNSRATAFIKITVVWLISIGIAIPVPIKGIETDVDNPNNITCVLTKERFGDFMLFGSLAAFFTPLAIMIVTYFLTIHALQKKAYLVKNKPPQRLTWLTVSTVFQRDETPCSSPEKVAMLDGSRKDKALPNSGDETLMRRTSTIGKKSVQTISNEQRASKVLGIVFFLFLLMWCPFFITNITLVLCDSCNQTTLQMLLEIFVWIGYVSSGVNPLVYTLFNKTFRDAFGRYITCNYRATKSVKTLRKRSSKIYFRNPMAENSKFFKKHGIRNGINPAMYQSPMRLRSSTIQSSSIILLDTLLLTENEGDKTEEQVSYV
# Sequence of D(3) dopamine receptor (P35462 whole entry): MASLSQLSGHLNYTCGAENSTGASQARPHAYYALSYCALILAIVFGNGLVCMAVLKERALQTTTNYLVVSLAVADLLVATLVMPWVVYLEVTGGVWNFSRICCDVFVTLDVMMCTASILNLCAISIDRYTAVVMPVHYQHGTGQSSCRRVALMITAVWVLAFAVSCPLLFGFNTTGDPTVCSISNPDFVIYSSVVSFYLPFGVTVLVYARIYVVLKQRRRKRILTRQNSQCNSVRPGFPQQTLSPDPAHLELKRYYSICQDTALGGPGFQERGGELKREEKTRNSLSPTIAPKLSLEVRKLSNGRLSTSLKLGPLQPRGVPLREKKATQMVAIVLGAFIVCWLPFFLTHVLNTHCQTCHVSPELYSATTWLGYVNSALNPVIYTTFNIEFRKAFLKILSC
# Sequence of Sodium-dependent serotonin transporter (P31645 whole entry): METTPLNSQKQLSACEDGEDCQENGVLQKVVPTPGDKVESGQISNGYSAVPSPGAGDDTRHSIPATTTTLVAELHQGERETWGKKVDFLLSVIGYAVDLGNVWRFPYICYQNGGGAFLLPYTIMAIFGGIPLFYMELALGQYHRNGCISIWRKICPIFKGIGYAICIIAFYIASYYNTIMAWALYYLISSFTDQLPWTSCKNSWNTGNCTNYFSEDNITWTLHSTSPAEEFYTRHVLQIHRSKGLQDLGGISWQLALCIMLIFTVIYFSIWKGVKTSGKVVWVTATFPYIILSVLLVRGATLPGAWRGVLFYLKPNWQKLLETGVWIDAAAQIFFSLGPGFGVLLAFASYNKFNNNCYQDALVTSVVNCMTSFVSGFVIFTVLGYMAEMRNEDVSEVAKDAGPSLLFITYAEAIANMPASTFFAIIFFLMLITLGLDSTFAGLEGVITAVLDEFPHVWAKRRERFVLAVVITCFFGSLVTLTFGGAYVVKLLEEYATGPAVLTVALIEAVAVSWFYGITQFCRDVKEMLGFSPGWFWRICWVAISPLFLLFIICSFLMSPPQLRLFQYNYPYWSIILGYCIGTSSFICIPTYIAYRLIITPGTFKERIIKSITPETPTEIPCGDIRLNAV
# Sequence of Vasopressin V2 receptor (P30518 whole entry): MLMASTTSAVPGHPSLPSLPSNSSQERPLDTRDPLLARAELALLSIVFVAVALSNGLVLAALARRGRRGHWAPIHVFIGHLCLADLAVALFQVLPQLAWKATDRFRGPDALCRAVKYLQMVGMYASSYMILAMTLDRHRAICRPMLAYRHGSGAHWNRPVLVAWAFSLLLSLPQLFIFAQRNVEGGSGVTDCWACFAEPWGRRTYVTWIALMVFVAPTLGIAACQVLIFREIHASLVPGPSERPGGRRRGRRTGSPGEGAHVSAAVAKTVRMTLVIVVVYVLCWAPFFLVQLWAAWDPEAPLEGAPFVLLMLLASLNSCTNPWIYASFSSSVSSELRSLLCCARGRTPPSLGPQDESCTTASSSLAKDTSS
# Sequence of Neuronal acetylcholine receptor subunit alpha-4 (P43681 whole entry): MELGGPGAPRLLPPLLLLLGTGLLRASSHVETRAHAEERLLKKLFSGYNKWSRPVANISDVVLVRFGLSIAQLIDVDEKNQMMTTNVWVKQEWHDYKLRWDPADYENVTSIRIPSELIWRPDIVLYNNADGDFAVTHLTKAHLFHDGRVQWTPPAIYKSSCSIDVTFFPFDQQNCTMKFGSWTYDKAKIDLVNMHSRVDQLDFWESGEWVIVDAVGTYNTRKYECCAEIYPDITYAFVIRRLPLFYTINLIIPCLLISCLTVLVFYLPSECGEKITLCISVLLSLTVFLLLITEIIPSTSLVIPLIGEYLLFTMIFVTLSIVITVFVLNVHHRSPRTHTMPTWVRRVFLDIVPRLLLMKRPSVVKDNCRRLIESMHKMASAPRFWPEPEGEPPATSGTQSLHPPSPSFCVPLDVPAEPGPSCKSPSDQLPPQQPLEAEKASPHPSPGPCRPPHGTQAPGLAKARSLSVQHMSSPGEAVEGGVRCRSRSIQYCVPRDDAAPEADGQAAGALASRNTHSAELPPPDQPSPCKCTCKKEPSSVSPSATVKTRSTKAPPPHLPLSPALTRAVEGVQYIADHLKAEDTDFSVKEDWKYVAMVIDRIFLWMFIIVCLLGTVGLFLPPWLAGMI
# Sequence of 5-hydroxytryptamine receptor 2A (P28223 whole entry): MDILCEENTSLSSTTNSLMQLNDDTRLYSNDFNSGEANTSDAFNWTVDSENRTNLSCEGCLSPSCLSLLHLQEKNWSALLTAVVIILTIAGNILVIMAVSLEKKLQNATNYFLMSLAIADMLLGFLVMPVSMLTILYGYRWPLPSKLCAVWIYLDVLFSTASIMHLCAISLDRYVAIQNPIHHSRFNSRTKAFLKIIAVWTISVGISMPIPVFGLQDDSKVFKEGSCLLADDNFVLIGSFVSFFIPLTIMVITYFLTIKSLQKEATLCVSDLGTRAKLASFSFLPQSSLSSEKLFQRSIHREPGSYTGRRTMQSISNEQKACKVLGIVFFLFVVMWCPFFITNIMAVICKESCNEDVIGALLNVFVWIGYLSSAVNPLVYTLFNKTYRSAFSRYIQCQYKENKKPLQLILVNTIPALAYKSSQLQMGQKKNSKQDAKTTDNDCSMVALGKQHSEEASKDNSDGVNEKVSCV
Structure (SMILES),AC50 [1],AC50 (Endothelin-1 receptor),AC50 [2],AC50 [3],AC50 (Cannabinoid receptor 1),AC50 (D(3) dopamine receptor),AC50 [4],AC50 [5],AC50 [6],AC50 [7],AC50 [8],AC50 [9],AC50 (Vasopressin V2 receptor),AC50 [10],AC50 [11],AC50 [12]
O=C1CN=C(c2ccccc2)c2cc(Cl)ccc2N1CC(F)(F)F [HALAZEPAM],> 30 µM,> 30 µM,> 30 µM,> 30 µM,> 30 µM,> 30 µM,> 30 µM,> 30 µM,0.506 µM,> 30 µM,> 30 µM,20 µM,> 30 µM,> 30 µM,> 30 µM,
C=C1CC[C@@]2(O)[C@H]3Cc4ccc(O)c5c4[C@@]2(CCN3CC2CC2)[C@H]1O5,> 30 µM,> 30 µM,> 30 µM,> 30 µM,> 30 µM,> 30 µM,> 30 µM,> 30 µM,> 30 µM,> 30 µM,> 30 µM,,> 30 µM,> 30 µM,> 30 µM,> 30 µM
CCCCCOC(=O)Nc1nc(=O)n([C@@H]2O[C@H](C)[C@@H](O)[C@H]2O)cc1F [CAPECITABINE],> 30 µM,> 30 µM,> 30 µM,> 30 µM,> 30 µM,> 30 µM,> 30 µM,> 30 µM,> 30 µM,> 30 µM,> 30 µM,> 30 µM,> 30 µM,> 30 µM,> 30 µM,
COC(=O)C1=C(C)NC(C)=C(C(=O)OC(C)C)C1c1cccc2nonc12 (configuration not stated) [ISRADIPINE],> 30 µM,,> 30 µM,> 10 µM,,> 30 µM,> 30 µM,> 30 µM,> 10 µM,> 30 µM,34.1 µM,10.7 µM,> 30 µM,> 10 µM,> 10 µM,> 10 µM
C1COC(NC(C2CC2)C2CC2)=N1 [RILMENIDINE],> 30 µM,,> 30 µM,> 30 µM,> 30 µM,> 10 µM,3.4 µM,> 10 µM,> 10 µM,6.8 µM,> 30 µM,1.72 µM,> 30 µM,> 10 µM,> 30 µM,> 10 µM
O=C(O)CCCc1ccccc1 [PHENYLBUTANOIC ACID],> 10 µM,> 30 µM,> 30 µM,> 30 µM,,> 30 µM,> 30 µM,> 10 µM,> 30 µM,> 30 µM,> 10 µM,> 30 µM,> 30 µM,> 30 µM,> 30 µM,> 30 µM
Cc1ccc(-c2nc3ccc(C)cn3c2CC(=O)N(C)C)cc1 [ZOLPIDEM],> 30 µM,> 30 µM,> 30 µM,> 30 µM,> 30 µM,> 30 µM,> 30 µM,> 30 µM,,> 30 µM,> 30 µM,18 µM,> 30 µM,29 µM,> 30 µM,
CN1CC(=O)N2[C@H](c3ccc4c(c3)OCO4)c3[nH]c4ccccc4c3C[C@@H]2C1=O,34.8 µM,,> 30 µM,> 30 µM,> 30 µM,> 30 µM,> 30 µM,> 10 µM,> 10 µM,> 10 µM,> 30 µM,> 10 µM,> 30 µM,> 10 µM,> 10 µM,> 10 µM
CC(Cc1ccccc1)NCCC(c1ccccc1)c1ccccc1 (configuration not stated) [PRENYLAMINE],17.6 µM,,> 10 µM,> 30 µM,,2.4 µM,> 30 µM,> 10 µM,> 10 µM,2.3 µM,> 30 µM,0.382 µM,> 30 µM,> 10 µM,> 30 µM,> 10 µM
CCCCOc1cc(C(=O)NCCN(CC)CC)c2ccccc2n1 [DIBUCAINE],> 10 µM,,> 30 µM,> 10 µM,> 30 µM,> 30 µM,> 30 µM,> 30 µM,> 30 µM,> 10 µM,> 30 µM,7.36 µM,> 30 µM,> 10 µM,> 10 µM,> 30 µM
CCCC(CCC)C(=O)O[C@H]1C[C@H]2CC[C@@H](C1)[N+]2(C)C [ANISOTROPINE],> 30 µM,> 30 µM,0.036 µM,> 30 µM,> 30 µM,> 30 µM,> 30 µM,26 µM,> 30 µM,> 30 µM,> 30 µM,> 30 µM,> 30 µM,> 30 µM,> 30 µM,
Cc1nc2ccc(CN(C)c3ccc(C(=O)N[C@@H](CCC(=O)O)C(=O)O)s3)cc2c(=O)[nH]1 [RALTITREXED],> 30 µM,> 30 µM,> 30 µM,> 30 µM,,> 30 µM,> 30 µM,> 30 µM,> 30 µM,> 30 µM,> 10 µM,> 30 µM,> 30 µM,> 30 µM,> 30 µM,> 30 µM
